From patent US20230190680A1, “METHODS AND COMPOSITIONS FOR TREATING AN RNA VIRUS INDUCED DISEASE” (Golden Biotechnology Corporation, priority 2020, published 2023) come the findings set out here.

One data set relates to HBeAg. Kind of data set: ELISA of HBeAg in HepG2.2.15 supernatants. In kind it is cell-based, HBV. The settings on record: 72 hours, FIG. 1A. On the procedure: (§1) Cell Culture. HepG2.2.15 cell line was cultured in MEM medium, supplemented with 10% fetal bovine serum, penicillin (100 IU/ml; Gibco, USA), and streptomycin (100 ug/ml; Gibco, USA) in 5% CO2 incubator at 37° C. This is a cell line derived from human hepatoblastoma cell line HepG2 and characterized by having stable HBV expression. Qs5 is HBV-producing rat hepatoma cell lines.
(§2) Lamivudine (3TC) and Adefovir dipivoxil (Adv) are marketed for HBV treatment as positive controls. Antroquinonol (G4) and Lamivudine (3TC) dissolved in dimethylsulfoxide (DMSO) only for stock solutions and diluted in culture medium. The final concentration of DMSO in cells is less 0.1%. Drugs treated with 2×10^4 cells in 96-well plate for 72 hours.
(§3) The levels of HBsAg and HBeAg in HepG2.2.15 supernatants were measured using their commercial enzyme-linked immunosorbent assay (ELISA) kits following the manufacturer’s instructions.
(§4) To examine the effect of Antroquinonol on HBV protein expression, including surface antigen (HBsAg) and e antigen (HBeAg), ELISA assay was used to quantify HBV replication. The study results have shown that Compound 1 (i.e., Antroquinonol) reduces HBeAg (see FIG. 1A) and HBsAg (see FIG. 1B) expression levels. Compound 1 in comparison with Lamivudine, has shown reduction in the expression levels of the two major HBV biomarkers, HBeAg and HBsAg by 50% and 40% respectively.
A general note: In an ELISA, binding on a coated surface is turned into a signal by an enzyme label.

A further data set concerns HBsAg. The data set is described as follows: ELISA of HBsAg in HepG2.2.15 supernatants. It is filed as cell-based, HBV. The settings on record: 72 hours, FIG. 1B. On the procedure: as §1, §2, §3, §4
The subject of a further data set is HepG2.2.15 cells. Kind of data set: MTT assay (cytotoxicity). In kind it is cell-based, human. On the procedure: as §1
MTT assay. 1.25 ×10^5 cells/well were seeded onto 24-well plate. Cells were incubated with varying concentrations of G4 and 3TC (1, 5, 25, 50, 100 and 200 uM) for 72 hours. 1 mg/ml 3-(4, 5-dimethylthiazol-2-yl)-2, 5- diphenyltetrazolium- bromide (MTT) was added to each well and incubated for 2 hours at 37° C. to allow formation of the colored crystals. Medium was replaced with DMSO and plates were incubated for 15 minutes at room temperature with shaking to dissolve the crystals. The absorbance was measured by the microplate reader. The optical density was measured at 490 nm.
(In general: Tetrazolium dyes change colour on reduction, which living cells bring about.)

In another data set the test system is IL6. In kind it is cell-based. To be noted: 10 µM; DMSO 47.81-fold; FIG. 12B.
For another data set, the system named is Nrf-2. The data set is described as follows: Renal inflammation, NF-kB activation model (FIG. 7): nuclear Nrf-2 expression. In kind it is in vivo.
The test system of the next data set is COL4A1. It is filed as cell-based. The settings on record: 20 µM; DMSO 2.37-fold; FIG. 13B.
Another data set relates to SARS-CoV-2. It is filed as cell-based. The settings on record: Vero E6 cells, MOI = 0.1, 24 h, FIG. 10.
For the next data set, the system named is IL-6. Kind of data set: Local renal inflammation marker IL-6 (FIG. 8). In kind it is in vivo.
In the next data set the test system is CD3. The data set is described as follows: Local renal inflammation marker CD3 (FIG. 8). It is filed as in vivo.
A further data set deals with TGFB1. In kind it is cell-based. The settings on record: 20 µM, DMSO 2.59-fold.
The test system of a further data set is CXCL10. It is filed as cell-based. To be noted: DMSO 9.04 fold.
Another data set concerns HCV RNA. The data set is described as follows: HCV RNA activity (FIG. 2B). In kind it is cell-based.
The subject of a further data set is MCP-1. The data set is described as follows: Local renal inflammation marker MCP-1 (FIG. 8). In kind it is in vivo.
A further data set deals with NF-kB. Kind of data set: Renal inflammation, NF-kB activation model (FIG. 7): NF-kB expression. It is filed as in vivo.
The subject of another data set is IL18. In kind it is cell-based. To be noted: 20 µM, DMSO 1.36-fold.

Where two headings read alike, the source gives them in different places.

Regarding `COC1=C(OC)C(O)C(C/C=C(\C)CC/C=C(\C)CCC=C(C)C)C(C)C1=O` (stereo not drawn) [Compound 1, 4-hydroxy-2,3-dimethoxy-6-methyl-5-(3,7,11-trimethyldodeca-2,6,10-trienyl)cyclohex-2-enone], the “reduction in the expression level of HBeAg” value with HBeAg was 50%. In addition, the “reduction in the expression level of HBsAg” value with HBsAg is reported as 40%. The “cytotoxicity by MTT assay” value is listed as “cytotoxicity effects” in the data set on HepG2.2.15 cells (over 25 uM) and “No apparent cytotoxicity” in the data set with HepG2.2.15 cells (up to exposure to 5 uM). For the same compound, the “change in IL6 expression” value in the data set on IL6 came to 11.88 fold. Besides, the “enhancement in nuclear Nrf-2 expression” value with Nrf-2 came to 2 times. In addition, in the data set with COL4A1, the “change in COL4A1 expression” value is on record as 0.65 fold. The “reduction of SARS-CoV-2 concentration” value in the data set with SARS-CoV-2 (10 µM) was 91.20%; with SARS-CoV-2 (20 µM), 99.93%. The “suppression of IL-6 expression” value in the data set on IL-6 is given as approximately 57%. For the same compound, the “suppression of CD3 expression” value with CD3 is approximately 66%. Besides, in the data set on TGFB1, the “change in TGFB1 expression” value is 0.99 fold. For the same compound, the “change in CXCL10 expression” value in the data set with CXCL10 (10 µM) stood at 3.40 fold; in the data set with CXCL10 (20 µM), 1.01 fold. Further, the “reduction in HCV RNA activity” value in the data set with HCV RNA is reported as 95%. For the same compound, in the data set on MCP-1, the “suppression of MCP-1 expression” value is on record as “around 50%”. Also, the “suppression in NF-kB expression” value with NF-kB is on record as 36%. Moreover, in the data set with IL18, the “change in IL18 expression” value is recorded as 0.89 fold.
